From the supplement of paper PMC10307832

Tests used:
Experiment in all cases: relative viability (nuclei count vs DMSO), 5 days (fraction); higher = more cells survive
[1] = test system: A549
Outline: (§1)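 Five library-drug doses in √10 steps were combined with a fixed anchor-drug dose, or a single drug was given alone, by pin tool to lung cancer cell lines in 1536-well plates the day after seeding. Nuclei were stained and counted after 5 days. Relative viability is the nuclei count in treated wells over that in vehicle wells, taken as the median of duplicate plates.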

[2] = test system: Calu-6
Outline: as §1

[3] = test system: EBC-1
Outline: as §1

[4] = test system: EMC-BAC-2
Outline: as §1

[5] = test system: HCC-366
Outline: as §1

[6] = test system: HCC-78
Outline: as §1

[7] = test system: IA-LM
Outline: as §1

[8] = test system: LCLC-97TM1
Outline: as §1

[9] = test system: NCI-H1299
Outline: as §1

[10] = test system: NCI-H1395
Outline: as §1

[11] = test system: NCI-H1703
Outline: as §1

Cc1csc(=NC2CCCCC2)n1/N=C/c1ccc(O)c(O)c1O [MIM1] + C[C@]1(O)C[C@@H](c2nc(-c3ccc4ccc(-c5ccccc5)nc4c3)c3c(N)nccn32)C1 [Linsitinib] (partner 1 µM)
relative viability ([1]; first compound 0.2 µM): 0.564 | relative viability ([1]; first compound 0.6325 µM): 0.638 | relative viability ([1]; first compound 2 µM): 0.618 | relative viability ([1]; first compound 6.325 µM): 0.504 | relative viability ([1]; first compound 20 µM): 0.515 | relative viability ([2]; first compound 0.6325 µM): 0.918 | relative viability ([2]; first compound 2 µM): 0.897 | relative viability ([2]; first compound 6.325 µM): 0.561 | relative viability ([2]; first compound 20 µM): 0.286 | relative viability ([3]; first compound 0.2 µM): 0.921 | relative viability ([3]; first compound 0.6325 µM): 0.829 | relative viability ([3]; first compound 2 µM): 0.871 | relative viability ([3]; first compound 6.325 µM): 0.605 | relative viability ([3]; first compound 20 µM): 0.318 | relative viability ([4]; first compound 0.2 µM): 0.776 | relative viability ([4]; first compound 0.6325 µM): 0.822 | relative viability ([4]; first compound 2 µM): 0.784 | relative viability ([4]; first compound 6.325 µM): 0.757 | relative viability ([4]; first compound 20 µM): 0.328 | relative viability ([5]; first compound 0.2 µM): 0.511 | relative viability ([5]; first compound 0.6325 µM): 0.715 | relative viability ([5]; first compound 2 µM): 0.565 | relative viability ([5]; first compound 6.325 µM): 0.361 | relative viability ([5]; first compound 20 µM): 0.0221 | relative viability ([6]; first compound 0.2 µM): 0.551 | relative viability ([6]; first compound 0.6325 µM): 0.594 | relative viability ([6]; first compound 2 µM): 0.488 | relative viability ([6]; first compound 6.325 µM): 0.439 | relative viability ([6]; first compound 20 µM): 0.541 | relative viability ([7]; first compound 0.2 µM): 0.563 | relative viability ([7]; first compound 0.6325 µM): 0.36 | relative viability ([7]; first compound 2 µM): 0.502 | relative viability ([7]; first compound 6.325 µM): 0.0829 | relative viability ([7]; first compound 20 µM): 0.105 | relative viability ([8]; first compound 0.2 µM): 0.171 | relative viability ([8]; first compound 0.6325 µM): 0.226 | relative viability ([8]; first compound 2 µM): 0.166 | relative viability ([8]; first compound 6.325 µM): 0.207 | relative viability ([8]; first compound 20 µM): 0.214 | relative viability ([9]; first compound 0.2 µM): 0.98 | relative viability ([9]; first compound 0.6325 µM): 0.93 | relative viability ([9]; first compound 2 µM): 0.963 | relative viability ([9]; first compound 6.325 µM): 0.919 | relative viability ([9]; first compound 20 µM): 0.667 | relative viability ([10]; first compound 0.2 µM): 0.927 | relative viability ([10]; first compound 0.6325 µM): 1.03 | relative viability ([10]; first compound 2 µM): 1.07 | relative viability ([10]; first compound 6.325 µM): 0.606 | relative viability ([10]; first compound 20 µM): 0.355 | relative viability ([11]; first compound 0.2 µM): 0.759 | relative viability ([11]; first compound 0.6325 µM): 1.31 | relative viability ([11]; first compound 2 µM): 0.701 | relative viability ([11]; first compound 6.325 µM): 0.144 | relative viability ([11]; first compound 20 µM): 0.095

Cc1csc(=NC2CCCCC2)n1/N=C/c1ccc(O)c(O)c1O [MIM1] + Cc1nc(NC(=O)N2CCC[C@H]2C(N)=O)sc1-c1ccnc(C(C)(C)C(F)(F)F)c1 [Alpelisib] (partner 2 µM)
relative viability ([1]; first compound 0.2 µM): 0.69 | relative viability ([1]; first compound 0.6325 µM): 0.879 | relative viability ([1]; first compound 2 µM): 0.79 | relative viability ([1]; first compound 6.325 µM): 0.56 | relative viability ([1]; first compound 20 µM): 0.102 | relative viability ([2]; first compound 0.2 µM): 0.971 | relative viability ([2]; first compound 0.6325 µM): 1.02 | relative viability ([2]; first compound 2 µM): 0.813 | relative viability ([2]; first compound 6.325 µM): 0.339 | relative viability ([2]; first compound 20 µM): 0.208 | relative viability ([3]; first compound 0.2 µM): 0.801 | relative viability ([3]; first compound 0.6325 µM): 0.862 | relative viability ([3]; first compound 2 µM): 0.785 | relative viability ([3]; first compound 6.325 µM): 0.531 | relative viability ([3]; first compound 20 µM): 0.296 | relative viability ([4]; first compound 0.2 µM): 0.718 | relative viability ([4]; first compound 0.6325 µM): 0.771 | relative viability ([4]; first compound 2 µM): 0.745 | relative viability ([4]; first compound 6.325 µM): 0.682 | relative viability ([4]; first compound 20 µM): 0.404 | relative viability ([5]; first compound 0.2 µM): 0.37 | relative viability ([5]; first compound 0.6325 µM): 0.37 | relative viability ([5]; first compound 2 µM): 0.335 | relative viability ([5]; first compound 6.325 µM): 0.308 | relative viability ([5]; first compound 20 µM): 0.0363 | relative viability ([6]; first compound 0.2 µM): 0.329 | relative viability ([6]; first compound 0.6325 µM): 0.388 | relative viability ([6]; first compound 2 µM): 0.362 | relative viability ([6]; first compound 6.325 µM): 0.365 | relative viability ([6]; first compound 20 µM): 0.359 | relative viability ([7]; first compound 0.2 µM): 0.829 | relative viability ([7]; first compound 0.6325 µM): 0.805 | relative viability ([7]; first compound 2 µM): 0.644 | relative viability ([7]; first compound 6.325 µM): 0.266 | relative viability ([7]; first compound 20 µM): 0.148 | relative viability ([8]; first compound 0.2 µM): 0.255 | relative viability ([8]; first compound 0.6325 µM): 0.258 | relative viability ([8]; first compound 2 µM): 0.207 | relative viability ([8]; first compound 6.325 µM): 0.26 | relative viability ([8]; first compound 20 µM): 0.129 | relative viability ([9]; first compound 0.2 µM): 1.01 | relative viability ([9]; first compound 0.6325 µM): 1.05 | relative viability ([9]; first compound 2 µM): 1.06 | relative viability ([9]; first compound 6.325 µM): 1.01 | relative viability ([9]; first compound 20 µM): 0.87 | relative viability ([10]; first compound 0.2 µM): 0.947 | relative viability ([10]; first compound 0.6325 µM): 1.06 | relative viability ([10]; first compound 2 µM): 0.911 | relative viability ([10]; first compound 6.325 µM): 0.537 | relative viability ([10]; first compound 20 µM): 0.407 | relative viability ([11]; first compound 0.2 µM): 0.329 | relative viability ([11]; first compound 0.6325 µM): 0.34 | relative viability ([11]; first compound 2 µM): 0.352 | relative viability ([11]; first compound 6.325 µM): 0.171 | relative viability ([11]; first compound 20 µM): 0.123
